Laboratory results reported in ChEMBL document CHEMBL5385846, “Discovery and development of palmatine analogues as anti-NASH agents by activating farnesoid X receptor (FXR)” (Eur J Med Chem, 2023).
The source made the active and inactive calls. No cut-off for these calls is given here.

Experiments:
Rattus norvegicus [1] = assay: Antifibrotic activity in bile duct ligation induced Sprague-Dawley rat liver fibrosis model assessed as downregulation of NTCP protein expression at 200 mg/kg,po qd administration for 14 days by Western blotting analysis; type: functional, organism-based; details: time 14.0 day
Rattus norvegicus [2] = assay: Hepatoprotective activity in bile duct ligation induced Sprague-Dawley rat liver injury model assessed as decrease in ALP level at 200 mg/kg,po qd administration for 14 days; type: functional, organism-based; details: time 14.0 day
Mus musculus [3] = assay: Anti-inflammatory activity in CDAHFD induced C57BL/6N mouse liver injury model assessed as downregulation of IL-6 protein expression in liver at 200 mg/kg,po qd administration for 4 weeks by Western blotting analysis; type: functional, organism-based
Mus musculus [4] = assay: Antifibrotic activity in CDAHFD induced non-alcoholic steatohepatitis C57BL/6N mouse model assessed as downregulation of MMP2 protein expression at 200 mg/kg,po qd administration for 4 weeks by Western blotting analysis; type: functional, organism-based
[5] = Half life in CD-1 mouse liver microsomes at 1 micromol/L measured upto 60 mins in presence of NADPH by LC-MS/MS analysis; type: ADME, Microsome; details: 1 h, 1 µM, dose 1 µmol/L
LX-2 [6] = assay: Antifibrotic activity in TGF-beta1 induced human LX2 cells assessed as downregulation of TGF-beta1 protein expression incubated for 24 hrs by western blotting analysis; type: functional, cell-based
LX-2 [7] = assay: Antifibrotic activity in TGF-beta1 induced human LX2 cells assessed as downregulation of COL1A1 protein expression incubated for 24 hrs by western blotting analysis; type: functional, cell-based
Mus musculus [8] = assay: Anti-inflammatory activity in CDAHFD induced C57BL/6N mouse liver injury model assessed as downregulation of TNF-alpha mRNA expression in liver at 200 mg/kg,po qd administration for 4 weeks by qRT-PCR analysis; type: functional, organism-based
Mus musculus [9] = assay: Hepatoprotective activity in CDAHFD induced C57BL/6N mouse liver injury model assessed as decrease in ALP level at 200 mg/kg,po qd administration for 4 weeks; type: functional, organism-based
[10] = Acute toxicity in Kunming mouse assessed as lethal dose at po administration; type: organism-based; details: in vivo
THP-1 [11] = assay: Anti-inflammatory activity in PMA differentiated human THP-1 cells assessed as downregulation of caspase-1 protein expression at 5 micromol/L incubated for 4 hrs followed by LPS and Nigericin addition for 3.5 hrs by Western blotting analysis; type: functional, cell-based; details: dose 5.0 µmol/L, time 7.5 hrs
Mus musculus [12] = assay: Hepatoprotective activity in CDAHFD induced C57BL/6N mouse liver injury model assessed as decrease in triglyceride level at 200 mg/kg,po qd administration for 4 weeks; type: functional, organism-based
Mus musculus [13] = assay: Anti-inflammatory activity in CDAHFD induced C57BL/6N mouse liver injury model assessed as reduction in inflammatory cell infiltration in liver at 200 mg/kg,po qd administration for 4 weeks by hematoxylin and eosin staining based assay; type: functional, organism-based
LX-2 [14] = assay: Antifibrotic activity in TGF-beta1 induced human LX2 cells assessed as downregulation of TIMP1 mRNA expression incubated for 24 hrs by qRT-PCR analysis; type: functional, cell-based
[15] = Metabolic stability in CD-1 mouse liver microsomes assessed as compound remaining at 1 micromol/L measured upto 60 mins in presence of NADPH by LC-MS/MS analysis; type: ADME, Microsome; details: 1 h, 1 µM, dose 1 µmol/L
THP-1 [16] = assay: Anti-inflammatory activity in PMA differentiated human THP-1 cells assessed as downregulation of caspase-1 protein expression at 10 micromol/L incubated for 4 hrs followed by LPS and Nigericin addition for 3.5 hrs by Western blotting analysis; type: functional, cell-based; details: dose 10.0 µmol/L, time 7.5 hrs
Mus musculus [17] = assay: Antifibrotic activity in CDAHFD induced non-alcoholic steatohepatitis C57BL/6N mouse model assessed as downregulation of TGF-beta1 protein expression at 200 mg/kg,po qd administration for 4 weeks by Western blotting analysis; type: functional, organism-based
[18] = Cytotoxicity against human LX2 cells assessed as inhibition of cell growth; type: toxicity, cell-based, LX-2
Rattus norvegicus [19] = assay: Hepatoprotective activity in bile duct ligation induced Sprague-Dawley rat liver injury model assessed as decrease in ALT level at 200 mg/kg,po qd administration for 14 days; type: functional, organism-based; details: time 14.0 day
[20] = Half life in human liver microsomes at 1 micromol/L measured upto 60 mins in presence of NADPH by LC-MS/MS analysis; type: ADME, Microsome; details: dose 1 µmol/L
Mus musculus [21] = assay: Hepatoprotective activity in CDAHFD induced C57BL/6N mouse liver injury model assessed as increase in glutathione peroxidase level at 200 mg/kg,po qd administration for 4 weeks; type: functional, organism-based
Mus musculus [22] = assay: Hepatoprotective activity in CDAHFD induced C57BL/6N mouse liver injury model assessed as inhibition of lipid peroxidation at 200 mg/kg,po qd administration for 4 weeks; type: functional, organism-based
Rattus norvegicus [23] = assay: Antifibrotic activity in bile duct ligation induced Sprague-Dawley rat liver fibrosis model assessed as upregulation of FXR protein expression at 200 mg/kg,po qd administration for 14 days by Western blotting analysis; type: functional, organism-based; details: time 14.0 day
[24] = target: Collagen alpha-1(I) chain (Homo sapiens) (UniProt P02452); assay: Inhibition of COL1A1 (unknown origin) expressed in human LX2 cells at 20 micromol/L incubated for 48 hrs by Bright-Glo luciferase assay relative to control; type: cell-based; details: dose 20.0 µmol/L
Chain of Collagen alpha-1(I) chain (Homo sapiens) (P02452 whole entry): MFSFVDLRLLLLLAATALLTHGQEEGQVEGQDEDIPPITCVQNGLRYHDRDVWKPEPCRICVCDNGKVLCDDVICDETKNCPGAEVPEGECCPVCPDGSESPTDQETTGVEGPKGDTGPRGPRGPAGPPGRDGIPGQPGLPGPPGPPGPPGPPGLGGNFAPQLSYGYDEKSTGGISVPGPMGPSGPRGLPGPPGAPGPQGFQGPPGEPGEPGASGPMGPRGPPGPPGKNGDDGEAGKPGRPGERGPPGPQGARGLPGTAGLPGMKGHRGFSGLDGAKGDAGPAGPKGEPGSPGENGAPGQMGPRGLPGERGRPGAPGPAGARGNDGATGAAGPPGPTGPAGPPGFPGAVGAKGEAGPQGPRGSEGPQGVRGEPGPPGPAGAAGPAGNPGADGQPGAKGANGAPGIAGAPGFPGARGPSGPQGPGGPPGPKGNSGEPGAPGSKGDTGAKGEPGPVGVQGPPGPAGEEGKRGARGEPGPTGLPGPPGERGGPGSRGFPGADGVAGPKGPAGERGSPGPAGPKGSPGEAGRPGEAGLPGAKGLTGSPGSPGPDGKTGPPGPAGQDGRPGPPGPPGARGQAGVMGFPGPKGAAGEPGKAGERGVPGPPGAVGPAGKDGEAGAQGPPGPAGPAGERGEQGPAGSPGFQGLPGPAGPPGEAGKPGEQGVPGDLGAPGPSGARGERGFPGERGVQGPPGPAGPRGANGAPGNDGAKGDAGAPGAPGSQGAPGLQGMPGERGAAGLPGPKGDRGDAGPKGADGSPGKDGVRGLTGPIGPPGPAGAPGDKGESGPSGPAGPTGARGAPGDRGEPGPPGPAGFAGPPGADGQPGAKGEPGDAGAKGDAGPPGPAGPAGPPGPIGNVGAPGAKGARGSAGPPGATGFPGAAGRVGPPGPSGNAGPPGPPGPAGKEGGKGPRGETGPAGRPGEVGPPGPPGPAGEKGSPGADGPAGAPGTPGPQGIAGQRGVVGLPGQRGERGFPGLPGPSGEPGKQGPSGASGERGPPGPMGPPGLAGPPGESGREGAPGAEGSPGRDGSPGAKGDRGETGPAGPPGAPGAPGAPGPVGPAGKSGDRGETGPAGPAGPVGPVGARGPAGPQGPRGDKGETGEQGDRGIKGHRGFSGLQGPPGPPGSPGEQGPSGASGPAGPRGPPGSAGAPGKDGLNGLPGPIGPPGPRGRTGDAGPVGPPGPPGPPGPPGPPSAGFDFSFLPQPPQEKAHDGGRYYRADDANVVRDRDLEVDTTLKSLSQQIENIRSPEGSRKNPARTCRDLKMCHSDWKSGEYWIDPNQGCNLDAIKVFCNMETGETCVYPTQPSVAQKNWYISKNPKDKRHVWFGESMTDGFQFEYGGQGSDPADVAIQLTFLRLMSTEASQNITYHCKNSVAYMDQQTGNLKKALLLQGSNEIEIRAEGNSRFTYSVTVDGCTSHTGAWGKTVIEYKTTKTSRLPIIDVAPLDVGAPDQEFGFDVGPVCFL

Mus musculus [25] = assay: Hepatoprotective activity in CDAHFD induced C57BL/6N mouse liver injury model assessed as decrease in ALT level at 200 mg/kg,po qd administration for 4 weeks; type: functional, organism-based
Rattus norvegicus [26] = assay: Antifibrotic activity in bile duct ligation induced Sprague-Dawley rat liver fibrosis model assessed as downregulation of COL1A1 mRNA expression at 200 mg/kg,po qd administration for 14 days by qRT-PCR analysis; type: functional, organism-based; details: time 14.0 day
Mus musculus [27] = assay: Antifibrotic activity in CDAHFD induced non-alcoholic steatohepatitis C57BL/6N mouse model assessed as downregulation of COL1A1 protein expression at 200 mg/kg,po qd administration for 4 weeks by Western blotting analysis; type: functional, organism-based
Mus musculus [28] = assay: Hepatoprotective activity in CDAHFD induced C57BL/6N mouse liver injury model assessed as decrease in LDL level at 200 mg/kg,po qd administration for 4 weeks; type: functional, organism-based
Mus musculus [29] = assay: Hepatoprotective activity in CDAHFD induced C57BL/6N mouse liver injury model assessed as increase in glucose level at 200 mg/kg,po qd administration for 4 weeks; type: functional, organism-based
LX-2 [30] = assay: Antifibrotic activity in TGF-beta1 induced human LX2 cells assessed as downregulation of TIMP1 protein expression incubated for 24 hrs by western blotting analysis; type: functional, cell-based
Mus musculus [31] = assay: Anti-inflammatory activity in CDAHFD induced C57BL/6N mouse liver injury model assessed as downregulation of IL-6 mRNA expression in liver at 200 mg/kg,po qd administration for 4 weeks by qRT-PCR analysis; type: functional, organism-based
Mus musculus [32] = assay: Anti-inflammatory activity in CDAHFD induced C57BL/6N mouse liver injury model assessed as downregulation of IL-1beta mRNA expression in liver at 200 mg/kg,po qd administration for 4 weeks by qRT-PCR analysis; type: functional, organism-based
Mus musculus [33] = assay: Antifibrotic activity in CDAHFD induced non-alcoholic steatohepatitis C57BL/6N mouse model assessed as decrease in collagen area at 200 mg/kg,po qd administration for 4 weeks by Masson's trichrome staining based analysis; type: functional, organism-based

In the case of COc1cc2c(cc1OC)-c1cc3ccc(OC)c(OCc4cccc(C)c4)c3c[n+]1CC2.[Br-], the Activity (Rattus norvegicus [1]) is reported as “Active”, the Activity (Rattus norvegicus [2]) is reported as “Active” and the Activity (Mus musculus [3]) is reported as “Active”. For the same compound, the Activity (Mus musculus [4]) was “Active”, the t1/2 [5] was 7.4 min and the Activity (LX-2 [6]) was “Dose-Dependent Effect”. The Activity (LX-2 [7]) was “Dose-Dependent Effect”, the Activity (Mus musculus [8]) was “Active” and the Activity (Mus musculus [9]) was “Active”. The LD50 [10] was > 1000 mg/kg, the Activity (THP-1 [11]) was “Active” and the Activity (Mus musculus [12]) was “inactive”. For the same compound, the Activity (Mus musculus [13]) was “Active”, the Activity (LX-2 [14]) was “Dose-Dependent Effect” and the Stability [15] was 39%. The Activity (THP-1 [16]) was “Active”, the Activity (Mus musculus [17]) was “Active” and the CC50 [18] was 70.4 µM. For the same compound, the Activity (Rattus norvegicus [19]) was “Active”, the half-life at 1 µM [20] was 53.3 min and the Activity (Mus musculus [21]) was “Active”. The Activity (Mus musculus [22]) was “Active”, the Activity (Rattus norvegicus [23]) was “Active” and the inhibition [24] was 72.4%. The Activity (Mus musculus [25]) was “Active”, the Activity (Rattus norvegicus [26]) was “Active” and the Activity (Mus musculus [27]) was “Active”. For the same compound, the Activity (Mus musculus [28]) was “Active”, the Activity (Mus musculus [29]) was “Active” and the Activity (LX-2 [30]) was “Dose-Dependent Effect”. The Activity (Mus musculus [31]) was “Active”, the Activity (Mus musculus [32]) was “Active” and the Activity (Mus musculus [33]) was “Active”.
